Measurements as given in US8853373B2, “Method and reagent for gene sequence analysis” (Hitachi, Ltd., priority 2009, dated 2014).

Key:
Type in all cases: biochemical
[1] = system: nucleotides G, C, and A (Sequence GA, Sequence CG, Sequence AG); test: Exclusivity of the other nucleotides (G, C, and A), elongation luminescence; settings: for Exclusivity of the other nucleotides (G, C, and A): CG, AG, luminescence normalized to dCTP, dGTP, dTTP as 1
Description: (§1) Incorporation into nucleic acid was evaluated as follows. First, one of the above sequences was used as a target. Next, the primer was made to complementarily bind to the target. Then, an elongation experiment was carried out using the respective nucleic acid substrates for that sample. The synthesized nucleic acid substrate requires an affinity (complementary characteristics) with nucleotide T, and exclusivity of the other nucleotides (G, C, and A). The affinity with nucleotide T was evaluated using the Sequence TG and the primer. The exclusivity of the other nucleotides (G, C, and A) was evaluated using the respective Sequence GA, Sequence CG, and Sequence AG, and the primer. In addition, Sequence 5T was used for the evaluation of an ability of continuous incorporation into nucleotide T.
(§2) A sequencing method using a stepwise chemical reaction is described below. First, 35 μL of ultrapure water, 5 μL of oligo DNA (10 μM) of analysis object (target), and 5 μL of a primer (20 μM) were mixed with 5 μL of a hybridization buffer (10 mM Tris-Acetate, 20 mM Mg-Acetate, pH 7.75) (a sample solution: the final volume was 50 μL). Then, the sample solution was heated at 94° C. for 20 seconds, and reacted at a Tm temperature of the primer for 2 minutes. After that, 0.5 μL, (target: […], primer: […]) of this sample solution, 20 of a luminescence reagent which is designated in Condition 2 of Table 1, and 0.2 μL of a polymerase enzyme (the final concentration: 0.05 U/4) were mixed to prepare a reaction reagent (the final volume was 20.7 μL). To this reaction reagent was added 0.4 μL of 100 μM nucleic acid substrate (the final concentration 2 μM). When nucleic acid elongation occurs, bioluminescence derived from pyrophosphate of the elongation reaction product can be observed. The reaction has a luminescence peak a few seconds after the reaction initiation. […] This luminescence peak value is virtually proportional to the amount of generated pyrophosphate. Measurement of the peak value enables a degree of nucleic acid elongation to be estimated.
Next, with regard to the respective synthetic substrates, the exclusivity of the other nucleotides (G, C, and A) was assessed using each of Sequence GA, Sequence CG, and Sequence AG and the primer. […] In addition, a background luminescence component of the respective substrates was compensated by taking its difference into account in a manner similar to that of the preceding figures.

[2] = system: 5 consecutive nucleotides of T (Sequence 5T); test: Ability of incorporation into consecutive nucleotides of T (Sequence 5T), three consecutive injections; settings: 5 consecutive nucleotides; final concentration 4 μM; E1 = luminescence of 2nd and 3rd injections / total of 1st to 3rd
Description: as §1, §2
Next, by using Sequence 5T, the ability of incorporation of the respective synthetic substrates into consecutive nucleotides of T was evaluated by the following procedure. The reaction reagent was prepared by using Sequence 5T as a target oligo in the same manner as in the case of evaluation of elongation of one nucleotide as described before. In this case, a target oligo 111 and a primer 112 form a complementary strand binding as depicted in FIG. 11(1). Due to the above, when dATP is dispensed into this reaction reagent as a substrate, five molecules of the substrate are consecutively elongated per target molecule as a primer having the substrate at the 3′ end 113, thereby releasing five molecules of pyrophosphate. If the elongation for all the five nucleotides is not completed, a portion of the nucleotide T remains in a single-stranded state. Because of this, when substrate dATP is dispensed again, the portion is elongated only in the case where a portion of incomplete elongation remains. Therefore, the release of pyrophosphate can be detected as luminescence. […] In addition, substrate dCTP, which is complementary to nucleotide G 114, was subsequently dispensed twice to detect luminescence. […]

[3] = system: nucleotide T (Sequence TG); test: Affinity between synthetic substrates and nucleotide T (one-nucleotide elongation, Sequence TG, luminescence); settings: compared with dATPαS / other substrates
Description: as §1
A sequencing method using a stepwise chemical reaction is described below. […] After that, 0.5 μL, (target: […], primer: […]) of this sample solution, 20 of a luminescence reagent which is designated in Condition 2 of Table 1, and 0.2 μL of a polymerase enzyme (the final concentration: 0.05 U/4) were mixed to prepare a reaction reagent (the final volume was 20.7 μL). […] The reaction has a luminescence peak a few seconds after the reaction initiation. […] This luminescence peak value is virtually proportional to the amount of generated pyrophosphate. […]

DNA Sequence S2 = test: Sequence analysis by stepwise chemical reaction (pyrogram), PPDK system, Condition 4; settings: DNA Sequence S2 (3 consecutive nucleotides)
Description: Therefore, a sequence having 3 consecutive nucleotides of T was analyzed for comparison. Analyzed DNA Sequence S2 and a primer P3 are described below.
Of note is that Sequence P3 represents a primer sequence. This primer can complementarily bind to the underlined portion of the above DNA Sequence S2. FIGS. 16 to 20 show the results of a sequence analysis. In addition, the reagent conditions were listed together in the following Table 3.
In this experiment, an enzyme system which converts PPi into ATP has employed an enzyme system in which PPi and AMP are converted into ATP by PPDK as described in the conventional technique (Patent Literature 4). The items of the figure are identical to those of FIG. 15. At the bottom of the respective figures, the injected nucleotide types are designated. At the top, the nucleotide types which have been incorporated into a complementary DNA sequence of analysis object are designated. The substrate was injected in the order of “bases A, T, C, and G”, and 7 cycles were analyzed. As indicated in the target sequence, in this analysis, two regions (Cycle 4 and Cycle 7) having 3 consecutive nucleotides of A incorporated are present. Because of this, a difference in the ability of continuous incorporation of a nucleic acid substrate that is used as a nucleotide A can be assessed. Hereinafter, the details are described.
First, three kinds of the substrates (A3d, dATPαS, and C^7dATP) having the final concentration of 2 μM were used. The results of a sequence analysis will be described (FIGS. 16 to 20). […] At the time of dispensing A (surrounded by the circle ◯) which represented the injected nucleotide type, A3d was used. […] Accordingly, as the signal corresponding to A at the first cycle indicated, background luminescence was observed. Due to this phenomenon, the luminescence signal corresponding to nucleotide A constantly included the increased background luminescence. The symbol • in the figure denotes elongation luminescence corresponding to a nucleotide sequence of a sample. In contrast, the major luminescence without corresponding to the nucleotide sequence is represented by the symbol ∇. […] At the time of dispensing A (surrounded by the circle ◯) which represented the injected nucleotide type, dATPαS was used. The resulting pyrogram and the nucleotide sequence of a sample were compared. The symbol • in the figure denotes elongation luminescence corresponding to a nucleotide sequence of a sample. In contrast, the major luminescence without corresponding to the nucleotide sequence is represented by the symbol ∇. […] At the time of dispensing A (surrounded by the circle ◯) which represented the injected nucleotide type, C^7dATP was used. […] Accordingly, as the signal corresponding to A at the first cycle indicated, big background luminescence was observed. Due to this phenomenon, the luminescence signal corresponding to nucleotide A constantly included the increased background luminescence. The symbol x in the figure denotes just a background luminescence signal. The symbol • denotes elongation luminescence corresponding to a nucleotide sequence of a sample. However, the symbol (•) denotes inclusion of both elongation-derived luminescence and background luminescence. In contrast, the major luminescence without corresponding to the nucleotide sequence is represented by the symbol ∇.

luciferase = luciferase (Photinus pyralis, UniProt P08659); test: Evaluation of substrate specificity for luciferase (luminescence on dispensing the substrate)
Description: In respect to the nucleic acid substrates synthesized, whether or not the substrates became a substrate for luciferase was evaluated by the following procedure. First, a luminescence reagent designated in Condition 1 of Table 1 was prepared.
Next, a reaction solution was prepared using 20 μL of this luminescence reagent, and 0.2 μL of a nucleic acid substrate of evaluation subject was injected. Then, luminescence emitted at this occasion was estimated. FIG. 6 is a graph showing the amount of luminescence when ATP, dATP, C^7dATP, and dATPαS are each dispensed as a substrate. The abscissa (C) indicates a final concentration of the compound in a reaction reagent. For example, when 0.2 μl of 1 μM substrate is dispensed, the final concentration is about 0.01 μM. An amount of luminescence (U) indicated in the ordinate was plotted by normalizing the amount of luminescence at 0.01 μM of ATP as 1. From this graph, the amount of luminescence (U) is found to be proportional to the final concentration (C). Because of this, as a substrate specificity (or substrate reactivity) for luciferase, the value (S) indicating the amount of luminescence per unit concentration is defined as described below. Substrate specificity (S)≡Amount of luminescence (U)/Final concentration (C)[μM]×0.01 (In this Definition, the Substrate Specificity of ATP is Normalized as 1).
The four points designated in the left side of the graph indicate each substrate specificity (S) of ATP, dATP, dATPαS, and C^7dATP. For a sequencing method using a stepwise chemical reaction represented by pyrosequencing, the amount of ATP generated from pyrophosphate produced in elongation of one nucleotide is equivalent to the amount of a target present in a reaction solution when all of the targets have been elongated. In addition, elongation of a plurality of nucleotides causes the amount to be multiplied by the number of the nucleotides. Generally speaking, the amount of a nucleic acid substrate which should be dispensed per reaction for sequencing requires about 100 times the amount of the target for analysis. This is because a sequenced region may sometimes contain about 10 consecutive identical nucleotides; and a reaction solution for this sequencing method has a substrate-degrading enzyme together, so that the nucleic acid elongation and substrate degradation are competed. Shortage of the substrates causes incomplete elongation, so that the following sequence analysis cannot be carried out. […] As a countermeasure against it, the substrate having about 100 times the target amount which has been generally used is preferably dispensed per reaction.
In this Example, the synthesized nucleic acid substrates were purified by liquid chromatography. However, removal of pyrophosphate that had been incorporated during the synthesis may be insufficiently carried out only by liquid chromatography-mediated purification. At that occasion, the present inventors treated the synthesized nucleic acid substrates by a pyrophosphate-degrading enzyme (PPase) to decompose the pyrophosphate. Specifically, the synthesized nucleic acid substrate was diluted in a reaction solution (100 mM Tris-Acetate, 0.5 mM EDTA, 5 mM Mg-Acetate, 1 mM DTT, pH 7.5) at a concentration of 500 μM. Then, PPase was added at 0.2 mU/μL, and the mixture was reacted at 30° C. for 30 minutes, which caused degradation of pyrophosphate in the solution. This method represents one example. […]

luciferase, sequence (P08659 whole entry, species assumed): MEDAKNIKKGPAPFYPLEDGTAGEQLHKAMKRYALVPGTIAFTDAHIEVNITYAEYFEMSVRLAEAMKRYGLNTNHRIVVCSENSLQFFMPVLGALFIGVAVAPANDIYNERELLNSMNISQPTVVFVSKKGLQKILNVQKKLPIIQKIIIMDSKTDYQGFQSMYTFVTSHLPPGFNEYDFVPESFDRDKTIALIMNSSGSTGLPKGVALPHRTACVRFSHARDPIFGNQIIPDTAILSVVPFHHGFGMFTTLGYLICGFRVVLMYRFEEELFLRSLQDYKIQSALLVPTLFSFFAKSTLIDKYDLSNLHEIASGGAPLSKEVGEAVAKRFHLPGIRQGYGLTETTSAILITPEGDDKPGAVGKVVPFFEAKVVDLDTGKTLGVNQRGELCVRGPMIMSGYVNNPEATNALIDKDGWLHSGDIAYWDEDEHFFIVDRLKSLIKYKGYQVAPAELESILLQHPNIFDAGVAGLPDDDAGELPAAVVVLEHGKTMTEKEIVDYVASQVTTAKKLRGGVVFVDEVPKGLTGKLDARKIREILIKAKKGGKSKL

## Nc1ncnc2c1c(/C=C/C(=O)NCCc1ccccc1)cn2[C@H]1CC(O)[C@@H](COP(=O)(O)OP(=O)(O)OP(=O)(O)O)O1 (some centres unmarked) [A3a]
[1]
  Exclusivity of the other nucleotides (G, C, and A): exhibits luminescence for all the three kinds of nucleotides

## Nc1ncnc2c1c(/C=C/C(=O)NCCc1ccccn1)cn2[C@H]1CC(O)[C@@H](COP(=O)(O)OP(=O)(O)OP(=O)(O)O)O1 (some centres unmarked) [A3b]
[1]
  Exclusivity of the other nucleotides (G, C, and A): excellent exclusivity
[2]
  Rate of Incomplete Elongation after the First Injection (%): 11.2 ± 2.9%

## CCCNC(=O)/C=C/c1cn([C@H]2CC(O)[C@@H](COP(=O)(O)OP(=O)(O)OP(=O)(O)O)O2)c2ncnc(N)c12 (some centres unmarked) [A3c]
[3]
  Reaction rate of nucleic acid elongation (luminescence profile): higher reaction rate
[1]
  Exclusivity of nucleotide G: a little poor exclusivity
  Exclusivity of the other nucleotides (G, C, and A): generally good

## NCCCCCCNC(=O)CCc1cn([C@H]2CC(O)[C@@H](COP(=O)(O)OP(=O)(O)OP(=O)(O)O)O2)c2ncnc(N)c12 (some centres unmarked) [B4]
[1]
  Exclusivity of the other nucleotides (G, C, and A): exhibits luminescence

## Nc1ncnc2c1ccn2[C@H]1C[C@H](O)[C@@H](COP(=O)(O)OP(=O)(O)OP(=O)(O)O)O1 [C^7dATP, 7-deaza-2′-deoxyadenosine triphosphate]
DNA Sequence S2; final concentration 2 μM, 7 cycles
  Sequence analysis result as substitute for dATP: substrate-derived background luminescence was large, so that the precise sequence identification was found to be difficult
DNA Sequence S2; final concentration 4 μM
  Sequence analysis result as substitute for dATP: incomplete elongation for the nucleotide G at Cycle 5 was not improved
luciferase; FIG. 7
  Substrate specificity for luciferase compared with that of dATPαS: about two orders higher
luciferase; amount of luminescence per unit concentration, substrate specificity of ATP normalized as 1
  Substrate specificity (S) for luciferase, relative to that of ATP: about 1/250
